The compounds below were run on FLAP (5-lipoxygenase activating protein) (assay: In vitro binding test: displacement of [3H]-7-chloro-3-(5-((3-fluoropyridin-2-yl)methoxy)-2-methylphenyl)-3,4-dihydroquinazolin-2(1H)-one from Sf9 microsome fractions). Settings: Sf9 microsome fractions expressing FLAP; 100% = radioligand binding with 10 μM sodium 3-(3-(tert-butylsulfanyl)-1-(4-chlorobenzyl)-5-isopropyl-1H-indol-2-yl)-2,2-dimethylpropanoate, 0% = DMSO; test compound concentration not given.
Set-up: species or system human and mouse
Method in brief: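 Sf9 microsomes expressing human or mouse FLAP (2 μg/mL) preincubated with compound 10 min at room temperature, then 120 nM tritiated quinazolinone ligand added for 60 min; buffer 100 mM Tris-HCl pH 7.5 with NaCl, EDTA, DTT, glycerol, Tween20. Bound ligand filtered and counted by scintillation; 10 μM indole propanoate defines 100% inhibition, DMSO 0%.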

| inhibitory rate (%) | Compound |
| --- | --- |
| 97 | Cc1cc2c(cc1N1Cc3c(cc(OCC(F)F)nc3C3CC3)NC1=O)OC(c1ncccc1F)CC2 (centres unmarked) [Example 159, 5-cyclopropyl-7-(2,2-difluoroethoxy)-3-(2-(3-fluoropyridin-2-yl)-6-methyl-3,4-dihydro-2H-chromen-7-yl)-3,4-dihydropyrido[4,3-d]pyrimidin-2(1H)-one] |
| 93 | Cc1cc2c(cc1N1Cc3c(Cl)cnc(-c4ccnn4C)c3NC1=O)OC(c1ncccc1F)CC2 (centres unmarked) [Example 160, 5-chloro-3-(2-(3-fluoropyridin-2-yl)-6-methyl-3,4-dihydro-2H-chromen-7-yl)-8-(1-methyl-1H-pyrazol-5-yl)-3,4-dihydropyrido[3,4-d]pyrimidin-2(1H)-one] |
| 90 | CCOc1ncc(Cl)c2c1NC(=O)N(c1cc3c(cc1C)CCC(c1ncccc1F)O3)C2 (centres unmarked) [Example 161, 5-chloro-8-ethoxy-3-(2-(3-fluoropyridin-2-yl)-6-methyl-3,4-dihydro-2H-chromen-7-yl)-3,4-dihydropyrido[3,4-d]pyrimidin-2(1H)-one] |
| 95 | Cc1cc2c(cc1N1Cc3c(C4CC4)cnc(-c4cnn(C)c4)c3NC1=O)OC(c1ncccc1F)CC2 (centres unmarked) [Example 162, 5-cyclopropyl-3-(2-(3-fluoropyridin-2-yl)-6-methyl-3,4-dihydro-2H-chromen-7-yl)-8-(1-methyl-1H-pyrazol-4-yl)-3,4-dihydropyrido[3,4-d]pyrimidin-2(1H)-one] |
| 98 | Cn1cc(-c2ncc(C3CC3)c3c2NC(=O)N(c2cc4c(cc2Cl)CCC(c2ncccc2F)O4)C3)cn1 (centres unmarked) [Example 163, 3-(6-chloro-2-(3-fluoropyridin-2-yl)-3,4-dihydro-2H-chromen-7-yl)-5-cyclopropyl-8-(1-methyl-1H-pyrazol-4-yl)-3,4-dihydropyrido[3,4-d]pyrimidin-2(1H)-one] |
| 102 | Cc1cc2c(cc1N1Cc3c(Cl)cnc(-c4ccoc4)c3NC1=O)OC(c1ncccc1F)CC2 (centres unmarked) [Example 164, 5-chloro-3-(2-(3-fluoropyridin-2-yl)-6-methyl-3,4-dihydro-2H-chromen-7-yl)-8-(3-furyl)-3,4-dihydropyrido[3,4-d]pyrimidin-2(1H)-one] |
| 104 | Cc1cc2c(cc1N1Cc3c(Cl)cnc(N(C)C)c3NC1=O)OC(c1ncccc1F)CC2 (centres unmarked) [Example 165, 5-chloro-8-(dimethylamino)-3-(2-(3-fluoropyridin-2-yl)-6-methyl-3,4-dihydro-2H-chromen-7-yl)-3,4-dihydropyrido[3,4-d]pyrimidin-2(1H)-one] |
| 106 | O=C1Nc2c(C3CC3)ncc(F)c2CN1c1cc2c(cc1Cl)CCC(c1ncccc1F)O2 (centres unmarked) [Example 166, 3-(6-chloro-2-(3-fluoropyridin-2-yl)-3,4-dihydro-2H-chromen-7-yl)-8-cyclopropyl-5-fluoro-3,4-dihydropyrido[3,4-d]pyrimidin-2(1H)-one] |
| 95 | Cc1cc2c(cc1N1Cc3c(F)cnc(-c4cnn(C)c4)c3NC1=O)OC(c1ncccc1F)CC2 (centres unmarked) [Example 167, 5-fluoro-3-(2-(3-fluoropyridin-2-yl)-6-methyl-3,4-dihydro-2H-chromen-7-yl)-8-(1-methyl-1H-pyrazol-4-yl)-3,4-dihydropyrido[3,4-d]pyrimidin-2(1H)-one] |
| 91 | Cc1cc2c(cc1N1Cc3c(F)cnc(C4CC4)c3NC1=O)OC(c1ncccc1F)CC2 (centres unmarked) [Example 168, 8-cyclopropyl-5-fluoro-3-(2-(3-fluoropyridin-2-yl)-6-methyl-3,4-dihydro-2H-chromen-7-yl)-3,4-dihydropyrido[3,4-d]pyrimidin-2(1H)-one] |
| 92 | Cn1cc(-c2ncc(F)c3c2NC(=O)N(c2cc4c(cc2Cl)CCC(c2ncccc2F)O4)C3)cn1 (centres unmarked) [Example 169, 3-(6-chloro-2-(3-fluoropyridin-2-yl)-3,4-dihydro-2H-chromen-7-yl)-5-fluoro-8-(1-methyl-1H-pyrazol-4-yl)-3,4-dihydropyrido[3,4-d]pyrimidin-2(1H)-one] |
| 91 | Cc1ccc(OCc2c(F)cccc2F)cc1N1Cc2ccccc2NC1=O [Example 170, 3-(5-((2,6-difluorobenzyl)oxy)-2-methylphenyl)-3,4-dihydroquinazolin-2(1H)-one] |
| 99 | COC(=O)c1ccc2c(c1)NC(=O)N(c1cc(OCc3c(F)cccc3F)ccc1C)C2 [Example 171, methyl 3-(5-((2,6-difluorobenzyl)oxy)-2-methylphenyl)-2-oxo-1,2,3,4-tetrahydroquinazoline-7-carboxylate] |
| 80 | Cc1ccc(OCc2ccccc2F)cc1N1Cc2ccccc2NC1=O [Example 172, 3-(5-((2-fluorobenzyl)oxy)-2-methylphenyl)-3,4-dihydroquinazolin-2(1H)-one] |
| 70 | Cc1ccc(OCc2ccccc2Cl)cc1N1Cc2ccccc2NC1=O [Example 173, 3-(5-((2-chlorobenzyl)oxy)-2-methylphenyl)-3,4-dihydroquinazolin-2(1H)-one] |
| 54 | Cc1ccc(OCc2c(F)cc(Cl)cc2F)cc1N1Cc2ccccc2NC1=O [Example 174, 3-(5-((4-chloro-2,6-difluorobenzyl)oxy)-2-methylphenyl)-3,4-dihydroquinazolin-2(1H)-one] |
| 51 | Cc1ccc(OCc2cccs2)cc1N1Cc2ccccc2NC1=O [Example 175, 3-(2-methyl-5-(2-thienylmethoxyl)phenyl)-3,4-dihydroquinazolin-2(1H)-one] |
| 95 | COC(=O)c1ccc2c(c1)NC(=O)N(c1cc(OCc3c(F)cccc3F)ccc1C(=O)OC)C2 [Example 176, methyl 3-(5-((2,6-difluorobenzyl)oxy)-2-(methoxycarbonyl)phenyl)-2-oxo-1,2,3,4-tetrahydroquinazoline-7-carboxylate] |
| 84 | CCc1ccc(OCc2c(F)cccc2F)cc1N1Cc2ccc(C(=O)OC)cc2NC1=O [Example 177, methyl 3-(5-((2,6-difluorobenzyl)oxy)-2-ethylphenyl)-2-oxo-1,2,3,4-tetrahydroquinazoline-7-carboxylate] |
| 109 | CCc1ccc(OCc2c(F)cccc2F)cc1N1Cc2ccc(C(C)(C)O)cc2NC1=O [Example 178, 3-(5-((2,6-difluorobenzyl)oxy)-2-ethylphenyl)-7-(2-hydroxypropan-2-yl)-3,4-dihydroquinazolin-2(1H)-one] |
| 91 | CCc1ccc(OCc2c(F)cccc2F)cc1N1Cc2ccc(CO)cc2NC1=O [Example 179, 3-(5-((2,6-difluorobenzyl)oxy)-2-ethylphenyl)-7-(hydroxymethyl)-3,4-dihydroquinazolin-2(1H)-one] |
| 81 | Cc1ccc(OCc2c(F)cccc2F)cc1N1Cc2ccc(C(C)(C)O)cc2NC1=O [Example 180, 3-(5-((2,6-difluorobenzyl)oxy)-2-methylphenyl)-7-(2-hydroxypropan-2-yl)-3,4-dihydroquinazolin-2(1H)-one] |
| 91 | Cc1ccc(OCc2c(F)cccc2F)cc1N1Cc2ccc(CO)cc2NC1=O [Example 181, 3-(5-((2,6-difluorobenzyl)oxy)-2-methylphenyl)-7-(hydroxymethyl)-3,4-dihydroquinazolin-2(1H)-one] |

From US20150299188A1, “HETEROCYCLIC COMPOUND” (priority 2012, published 2015)
